Among the data in US9765067B2, “Thiophen-2-yl-pyridin-2-yl-1H-pyrazole-4-carboxylic acid derivatives and the use thereof as soluble guanylate cyclase activators” (Novartis AG, priority 2014, dated 2017) are EC50 values, retold here.

Where only a bound is given, the exact number is not on record here.

As usually defined, the EC50 is the concentration needed to bring the measured effect to its halfway point. A low value points to a more potent agent.

The assay addresses T1, soluble guanylate cyclase (human GUCYA3/GUCYB3) overexpressed in CHO cells (Homo sapiens, UniProt Q02108+Q02153).
T1 construct: expressed in transfected cells
T1 sequence (Q02108 1-690 partner): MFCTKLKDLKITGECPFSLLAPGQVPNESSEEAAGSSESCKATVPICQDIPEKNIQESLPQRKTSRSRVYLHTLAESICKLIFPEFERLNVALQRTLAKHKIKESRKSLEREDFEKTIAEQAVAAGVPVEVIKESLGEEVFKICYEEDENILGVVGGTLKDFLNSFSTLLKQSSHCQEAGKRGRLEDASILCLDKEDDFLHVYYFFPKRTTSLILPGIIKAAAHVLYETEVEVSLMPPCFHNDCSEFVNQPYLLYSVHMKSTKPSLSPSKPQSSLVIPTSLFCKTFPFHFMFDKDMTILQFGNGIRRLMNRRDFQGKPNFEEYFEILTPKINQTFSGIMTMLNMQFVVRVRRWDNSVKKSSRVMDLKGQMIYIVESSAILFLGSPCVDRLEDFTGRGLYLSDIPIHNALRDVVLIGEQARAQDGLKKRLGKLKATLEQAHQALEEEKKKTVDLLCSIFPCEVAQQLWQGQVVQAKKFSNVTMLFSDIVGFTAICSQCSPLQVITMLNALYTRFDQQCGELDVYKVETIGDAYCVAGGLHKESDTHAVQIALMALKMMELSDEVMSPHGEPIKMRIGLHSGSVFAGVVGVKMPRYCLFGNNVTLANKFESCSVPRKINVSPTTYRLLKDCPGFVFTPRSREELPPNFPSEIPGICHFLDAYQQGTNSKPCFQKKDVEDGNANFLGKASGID
T1 sequence (Q02153 1-619): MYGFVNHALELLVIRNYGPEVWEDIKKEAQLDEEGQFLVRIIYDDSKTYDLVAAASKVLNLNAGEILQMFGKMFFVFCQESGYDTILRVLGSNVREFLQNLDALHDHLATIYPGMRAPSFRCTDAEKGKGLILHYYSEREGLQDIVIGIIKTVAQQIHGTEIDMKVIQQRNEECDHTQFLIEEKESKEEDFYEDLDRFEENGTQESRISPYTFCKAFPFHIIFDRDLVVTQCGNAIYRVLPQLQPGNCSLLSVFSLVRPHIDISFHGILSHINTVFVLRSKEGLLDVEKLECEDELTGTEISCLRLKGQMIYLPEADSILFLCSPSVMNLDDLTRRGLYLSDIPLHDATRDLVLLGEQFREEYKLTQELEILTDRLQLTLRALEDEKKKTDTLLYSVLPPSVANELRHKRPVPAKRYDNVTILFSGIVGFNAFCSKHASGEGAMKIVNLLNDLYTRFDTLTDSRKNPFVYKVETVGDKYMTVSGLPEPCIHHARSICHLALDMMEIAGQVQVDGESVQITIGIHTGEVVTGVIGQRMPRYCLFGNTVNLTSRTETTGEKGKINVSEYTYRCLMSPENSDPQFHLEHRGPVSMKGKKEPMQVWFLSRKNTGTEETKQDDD
Nature of the assay: CHO cellular assay (cGMP production, HTRF). The format is cell-based. The note with it: CHO K1 clone 8E10 overexpressing human sGC, Cisbio HTRF, 1 h room temperature, 1 mM IBMX, 20 uM ODQ, minimum quantification limit 0.5 nM. The source says:
Chinese hamster ovary (CHO) cells overexpressing soluble guanylate cyclase were generated to test the effect of sGC activators in a cellular context. Human cDNAs for GUCYA3 (RefSeq: NM_000856.3) and GUCYB3 (RefSeq: NM_000857.1) were amplified by PCR from a HUVEC (Human Umbilical Vein Endothelial Cells) cDNA library and cloned into mammalian expression vectors. CHO K1 cells (ATCC CCL-61) were transfected using Lipofectamine 2000 following manufacturer's instructions and stably expressing clones were identified by antibiotic selection. CHO GUCY clone 8E10 was used for subsequent experiments.
Cells were seeded at a density of 3000 cells/well in white 384-well proxyplates (Perkin Elmer) and incubated overnight, then the medium was removed and cells were washed with assay buffer (HBSS, 0.1% BSA, 1 mM IBMX, 20 uM ODQ). sGC activators were serially diluted in DMSO, then diluted in assay buffer prior to adding to cells (10 ul/well, final DMSO concentration 0.5%). Cells were incubated with compounds for 1 h room temperature, then assayed for cGMP production using Cisbio cGMP HTRF kit (62GM2PEC) according to manufacturer's instructions.
The EC50s are calculated based on the amount of cGMP interpolated from the standard curve, using a 4-parameter sigmoidal dose-response.
For orientation: In TR-FRET formats the signal depends on donor and acceptor labels being close together.
For the molecule `Cc1cc(COc2ccc(C3CCN(C(=O)C4CC4)CC3)cc2C)c(-c2cccc(-n3ncc(C(=O)O)c3C(F)(F)F)n2)s1` [Example 5, 1-(6-(3-((4-(1-(Cyclopropanecarbonyl)piperidin-4-yl)-2-methylphenoxy)methyl)-5-methylthiophen-2-yl)pyridin-2-yl)-5-(trifluoromethyl)-1H-pyrazole-4-carboxylic acid], the half-maximal effective concentration (EC50) is ≤ 0.5 nM. Consider `Cc1cc(C2CCN(C(=O)C3CC3)CC2)ccc1OCc1ccsc1-c1cccc(-n2ncc(C(=O)O)c2C(F)(F)F)c1` [Example 6-1, 1-(3-(3-((4-(1-(Cyclopropanecarbonyl)piperidin-4-yl)-2-methylphenoxy)methyl)thiophen-2-yl)phenyl)-5-(trifluoromethyl)-1H-pyrazole-4-carboxylic acid], for which a half-maximal effect (EC50) was put at 1 nM.

As for `Cc1c(OCc2ccsc2-c2cccc(-n3ncc(C(=O)O)c3C(F)(F)F)n2)ccc(C2CCN(C(=O)C3CC3)CC2)c1C` [Example 6-2, 1-(6-(3-((4-(1-(Cyclopropanecarbonyl)piperidin-4-yl)-2,3-dimethylphenoxy)methyl)thiophen-2-yl)pyridin-2-yl)-5-(trifluoromethyl)-1H-pyrazole-4-carboxylic acid], the half-maximal effective concentration (EC50) is 33 nM. In the case of `Cc1cc(C2CCN(C(=O)C3CC3)CC2)ccc1OCc1cc(Cl)sc1-c1cccc(-n2ncc(C(=O)O)c2C(F)(F)F)n1` [Example 6-3, 1-(6-(5-Chloro-3-((4-(1-(cyclopropanecarbonyl)piperidin-4-yl)-2-methylphenoxy)methyl)thiophen-2-yl)pyridin-2-yl)-5-(trifluoromethyl)-1H-pyrazole-4-carboxylic acid] it was ≤ 0.5 nM; in that of `COc1cc(C2CCN(C(=O)C3CC3)CC2)ccc1OCc1ccsc1-c1cccc(-n2ncc(C(=O)O)c2C(F)(F)F)n1` [Example 6-4, 1-(6-(3-((4-(1-(Cyclopropanecarbonyl)piperidin-4-yl)-2-methoxyphenoxy)methyl)thiophen-2-yl)pyridin-2-yl)-5-(trifluoromethyl)-1H-pyrazole-4-carboxylic acid], 2 nM. In turn, `COc1cc(OCc2ccsc2-c2cccc(-n3ncc(C(=O)O)c3C(F)(F)F)n2)ccc1C1CCN(C(=O)C2CC2)CC1` [Example 6-5, 1-(6-(3-((4-(1-(Cyclopropanecarbonyl)piperidin-4-yl)-3-methoxyphenoxy)methyl)thiophen-2-yl)pyridin-2-yl)-5-(trifluoromethyl)-1H-pyrazole-4-carboxylic acid] had an EC50 of 1 nM. As for `CCc1cc(OCc2ccsc2-c2cccc(-n3ncc(C(=O)O)c3C(F)(F)F)n2)ccc1C1CCN(C(=O)C2CC2)CC1` [Example 6-6, 1-(6-(3-((4-(1-(Cyclopropanecarbonyl)piperidin-4-yl)-3-ethylphenoxy)methyl)thiophen-2-yl)pyridin-2-yl)-5-(trifluoromethyl)-1H-pyrazole-4-carboxylic acid], the EC50 was ≤ 0.5 nM. The figure for `Cc1cc(C2CCN(C(=O)C3CC3)CC2)ccc1OCc1cc(C2CC2)sc1-c1cccc(-n2ncc(C(=O)O)c2C(F)(F)F)n1` [Example 6-7, 1-(6-(3-((4-(1-(Cyclopropanecarbonyl)piperidin-4-yl)-2-methylphenoxy)methyl)-5-cyclopropylthiophen-2-yl)pyridin-2-yl)-5-(trifluoromethyl)-1H-pyrazole-4-carboxylic acid] is 1.4 nM; for `Cc1cc(C2CCN(C(=O)C3CC3)CC2)ccc1OCc1c(-c2cccc(-n3ncc(C(=O)O)c3C(F)(F)F)n2)sc(C)c1C` [Example 6-8, 1-(6-(3-((4-(1-(Cyclopropanecarbonyl)piperidin-4-yl)-2-methylphenoxy)methyl)-4,5-dimethylthiophen-2-yl)pyridin-2-yl)-5-(trifluoromethyl)-1H-pyrazole-4-carboxylic acid] it is ≤ 0.5 nM. For the molecule `CCc1c(C(=O)O)cnn1-c1cccc(-c2sccc2COc2ccc(C3CCN(C(=O)C4CC4)CC3)cc2C)n1` [Example 6-9, 1-(6-(3-((4-(1-(Cyclopropanecarbonyl)piperidin-4-yl)-2-methylphenoxy)methyl)thiophen-2-yl)pyridin-2-yl)-5-ethyl-1H-pyrazole-4-carboxylic acid], the half-maximal effective concentration (EC50) was ≤ 0.5 nM. The figure for `Cc1cc(COc2ccc(C3CC(C)(C)N(C(=O)C4CC4)C(C)(C)C3)cc2C)c(-c2cccc(-n3ncc(C(=O)O)c3C(F)(F)F)n2)s1` [Example 6-10, 1-(6-(3-((4-(1-(Cyclopropanecarbonyl)-2,2,6,6-tetramethylpiperidin-4-yl)-2-methylphenoxy)methyl)-5-methylthiophen-2-yl)pyridin-2-yl)-5-(trifluoromethyl)-1H-pyrazole-4-carboxylic acid] is 1 nM; for `CCc1cc(OCc2cc(C)sc2-c2cccc(-n3ncc(C(=O)O)c3C(F)(F)F)n2)ccc1C1CCN(C(=O)C2CC2)CC1` [Example 6-11, 1-(6-(3-((4-(1-(Cyclopropanecarbonyl)piperidin-4-yl)-3-ethylphenoxy)methyl)-5-methylthiophen-2-yl)pyridin-2-yl)-5-(trifluoromethyl)-1H-pyrazole-4-carboxylic acid] it is ≤ 0.5 nM. The figure for `Cc1cc(COc2ccc(C3CCN(C(=O)C4CC4)CC3)c(C(C)C)c2)c(-c2cccc(-n3ncc(C(=O)O)c3C(F)(F)F)n2)s1` [Example 6-12, 1-(6-(3-((4-(1-(Cyclopropanecarbonyl)piperidin-4-yl)-3-isopropylphenoxy)methyl)-5-methylthiophen-2-yl)pyridin-2-yl)-5-(trifluoromethyl)-1H-pyrazole-4-carboxylic acid] is 1 nM; for `Cc1cc(COc2ccc(C3CCN(C(=O)C4CC4)CC3)cc2F)c(-c2cccc(-n3ncc(C(=O)O)c3C(F)(F)F)n2)s1` [Example 6-13, 1-(6-(3-((4-(1-(Cyclopropanecarbonyl)piperidin-4-yl)-2-fluorophenoxy)methyl)-5-methylthiophen-2-yl)pyridin-2-yl)-5-(trifluoromethyl)-1H-pyrazole-4-carboxylic acid] it is 1 nM. In the case of `Cc1cc(COc2ccc(C3CCN(C(=O)C4CC4)CC3)c(F)c2)c(-c2cccc(-n3ncc(C(=O)O)c3C(F)(F)F)n2)s1` [Example 6-14, 1-(6-(3-((4-(1-(Cyclopropanecarbonyl)piperidin-4-yl)-3-fluorophenoxy)methyl)-5-methylthiophen-2-yl)pyridin-2-yl)-5-(trifluoromethyl)-1H-pyrazole-4-carboxylic acid] it was 3 nM; in that of `CCc1cc(C2CCN(C(=O)C3CC3)CC2)ccc1OCc1cc(C)sc1-c1cccc(-n2ncc(C(=O)O)c2C(F)(F)F)n1` [Example 6-15, 1-(6-(3-((4-(1-(Cyclopropanecarbonyl)piperidin-4-yl)-2-ethylphenoxy)methyl)-5-methylthiophen-2-yl)pyridin-2-yl)-5-(trifluoromethyl)-1H-pyrazole-4-carboxylic acid], 9.5 nM. `Cc1cc(COc2ccc(C3CCN(CC(F)(F)F)CC3)cc2C)c(-c2cccc(-n3ncc(C(=O)O)c3C(F)(F)F)n2)s1` [Example 6-16, 1-(6-(5-Methyl-3-((2-methyl-4-(1-(2,2,2-trifluoroethyl)piperidin-4-yl)phenoxy)methyl)thiophen-2-yl)pyridin-2-yl)-5-(trifluoromethyl)-1H-pyrazole-4-carboxylic acid] came in with a half-maximal effective concentration (EC50) of 6.3 nM. This EC50 is about 1.5-fold lower than that of the molecule before.
